{"source": "patent US11324798B2", "about": "“Materials and methods for treatment of inflammation” (CYTOGEL PHARMA, LLC, priority 2010, dated 2022)", "key": {"[1]": {"tested_on": "CGRP release from isolated rat tracheae", "test": "Electrical field stimulation (EFS)-evoked release of CGRP from isolated rat tracheae, radioimmunoassay", "type": "cell-based", "settings": "for Release of CGRP into the incubation medium / Absolute release of CGRP: individual experiments 1-5; for Release of CGRP into the incubation medium, Mean / Absolute release of CGRP, Mean: mean of 5 experiments", "procedure": "(§1) For the in vitro release experiments, a 10 mg/ml (14.62 mM; MW 684) stock solution of CYT-1010 was made in DMSO, which was further diluted with the oxygenated Krebs solution used in the organ bath: 5.5 μl of this CYT-1010 stock solution was added into 40 ml Krebs to make the highest applied 2 μM concentration of compound CYT-1010. Further dilutions to obtain the lower concentrations were prepared with Krebs solution.\n(§2) The incubation media containing the respective CYT-1010 concentrations were administered in the stimulated and post-stimulated 8-min fractions.\n(§3) Since even the highest, 2 μM, concentration of CYT-1010 solution contained negligible amount of DMSO, simple Krebs solution was used in the control experiments.\n(§4) Rats were exsanguinated in deep anaesthesia (sodium thiobarbital, 50 mg/kg i.p.), then the whole trachea was removed and cleaned of fat and adhering connective tissues. Tracheae from two rats were placed into the same 1.8 ml organ bath to obtain sufficient amount of released peptide and perfused (1 ml/min) with pH-(7.2) controlled oxygenized Krebs solution for 60 minutes (equilibration period) at 37° C. temperature. After discontinuation of the flow, the solution was changed three times for eight minutes to produce pre-stimulated, stimulated, post-stimulated fractions.\n(§5) Electrical field stimulation (40 V, 0.1 ms, 10 Hz for 120 s; 1200 pulses) was performed to elicit neurotransmitter release at the beginning of the second 8-minute period. Stimulation with 0.1 ms pulse width selectively activates very fast Na^+ channels, which are only present in the membrane of neural structures (Birmingham and Wilson, 1963; Coburn and Tomita 1973; Szolcsányi and Barthó, 1982); therefore, it excites nerve endings without influencing other excitable cells in the tracheae such as smooth muscle cells.\n(§6) Krebs solution was used in the pre-stimulated fraction for determining the basal CGRP outflow. During the stimulated and post-stimulated fractions, the incubation medium contained the examined concentrations of CYT-1010 (10, 100, 500, 1000 and 2000 nM) in separate experiments, and only one concentration was applied to the same tracheae to avoid neuropeptide depletion. In each group, 5 experiments were performed in parallel in 5 perfusion systems to provide n=5 data per group (10 tracheae per group).\n(§7) 60 male Wistar rats (250-300 g) altogether were divided into 6 experimental groups: Group 1: controls (n=10); Group 2: 10 nM CYT-1010 (n=10); Group 3: 100 nM CYT-1010 (n=10); Group 4: 500 nM CYT-1010 (n=10); Group 5: 1000 nM CYT-1010 (n=10); and Group 6: 2000 nM CYT-1010 (n=10). The total study was performed on three experimental days, two groups every occasion.\n(§8) Calcitonin gene-related peptide (CGRP) and substance P (SP) concentrations were determined from 400-400 μl samples of organ fluid of the preparations by means of radioimmunoassay methods described in Nemeth et al., 1996, 1998, 1999, 2006; Helyes et al., 1997, 2001, 2006; Borzsei et al., 2008). Each of these publications is incorporated herein by reference in its entirety.\n(§9) The released amount of the peptides CGRP and SP was calculated as fmol peptide per mg wet tissue (trachea). The absolute release in response to EFS in each experiment was calculated by adding peptide release in the second and third 8-min fractions and then taking off the basal release measured in the first (pre-stimulated) fraction. The detection limits of the RIA assays were 0.2 fmol/tube and 2 fmol/tube for CGRP and SP, respectively."}, "[2]": {"tested_on": "SP release from isolated rat tracheae", "test": "Electrical field stimulation (EFS)-evoked release of SP from isolated rat tracheae, radioimmunoassay", "type": "cell-based", "settings": "for SP Release into the incubation medium / Absolute release of SP: individual experiments 1-5; for SP Release into the incubation medium, Mean / Absolute release of SP, Mean: mean of 5 experiments", "procedure": "as §1, §2, §3, §4, §5, §6, §7, §8, §9"}, "[3]": {"settings": "1 microM, during stimulation (stimulated fraction)"}, "[4]": {"settings": "2 microM, after stimulation (post-stimulated fraction)"}, "[5]": {"settings": "2 microM, before stimulation (pre-stimulated fraction)"}, "[6]": {"settings": "2 microM, during stimulation (stimulated fraction)"}, "[7]": {"settings": "10-2000 nM added to the second and third fractions"}}, "note": "pEC50: −log10 of the molar value. Values joined by “and” are separate entries in the source; they are usually repeats but may differ in a detail not shown here. Equal entries are not always repeated.", "data": [{"compound": "NC(Cc1ccc(O)cc1)C(=O)NC1CCCCNC(=O)C(Cc2ccccc2)NC(=O)C(Cc2c[nH]c3ccccc23)NC1=O", "note": "[CYT-1010, H-Tyr-c-[D-Lys-Trp-Phe]]", "values": [{"measurement": "Release of CGRP into the incubation medium", "setting": "[1]; 1 microM, during stimulation (stimulated 8-min fraction)", "value": "0.510 fmol/mg wet tissue and 0.433 fmol/mg wet tissue and 0.170 fmol/mg wet tissue (2×) and 0.161 fmol/mg wet tissue"}, {"measurement": "Release of CGRP into the incubation medium, Mean", "setting": "[1]; [3]", "value": 0.289, "unit": "fmol/mg wet tissue"}, {"measurement": "Absolute release of CGRP", "setting": "[1]; 1 microM", "value": "0.371 fmol/mg wet tissue and 0.325 fmol/mg wet tissue and 0.083 fmol/mg wet tissue (2×) and 0.077 fmol/mg wet tissue"}, {"measurement": "Absolute release of CGRP, Mean", "setting": "[1]; 1 microM", "value": 0.188, "unit": "fmol/mg wet tissue"}, {"measurement": "CGRP release, % increase above baseline", "setting": "[1]; 2 microM, after stimulation", "value": "−4.59", "unit": "%"}, {"measurement": "Release of CGRP into the incubation medium", "setting": "[1]; 2 microM, after stimulation (post-stimulated 8-min fraction)", "value": "0.200 fmol/mg wet tissue and 0.161 fmol/mg wet tissue and 0.133 fmol/mg wet tissue and 0.018 fmol/mg wet tissue and 0.167 fmol/mg wet tissue"}, {"measurement": "Release of CGRP into the incubation medium, Mean", "setting": "[1]; [4]", "value": 0.136, "unit": "fmol/mg wet tissue"}, {"measurement": "CGRP release, % increase above baseline", "setting": "[1]; 2 microM, before stimulation", "value": 0.00, "unit": "%"}, {"measurement": "Release of CGRP into the incubation medium", "setting": "[1]; 2 microM, before stimulation (pre-stimulated 8-min fraction)", "value": "0.102 fmol/mg wet tissue and 0.231 fmol/mg wet tissue and 0.097 fmol/mg wet tissue and 0.148 fmol/mg wet tissue and 0.134 fmol/mg wet tissue"}, {"measurement": "Release of CGRP into the incubation medium, Mean", "setting": "[1]; [5]", "value": 0.142, "unit": "fmol/mg wet tissue"}, {"measurement": "CGRP release, % increase above baseline", "setting": "[1]; 2 microM, during stimulation", "value": 204.09, "unit": "%"}, {"measurement": "Release of CGRP into the incubation medium", "setting": "[1]; 2 microM, during stimulation (stimulated 8-min fraction)", "value": "0.198 fmol/mg wet tissue and 0.584 fmol/mg wet tissue and 0.388 fmol/mg wet tissue and 0.645 fmol/mg wet tissue and 0.353 fmol/mg wet tissue"}, {"measurement": "Release of CGRP into the incubation medium, Mean", "setting": "[1]; [6]", "value": 0.433, "unit": "fmol/mg wet tissue"}, {"measurement": "Absolute release of CGRP", "setting": "[1]; 2 microM", "value": "0.192 fmol/mg wet tissue and 0.284 fmol/mg wet tissue and 0.326 fmol/mg wet tissue and 0.366 fmol/mg wet tissue and 0.253 fmol/mg wet tissue"}, {"measurement": "Absolute release of CGRP, Mean", "setting": "[1]; 2 microM", "value": 0.284, "unit": "fmol/mg wet tissue"}, {"measurement": "Effect on stimulation-evoked CGRP release", "setting": "[1]; [7]", "value": "significantly inhibited"}, {"measurement": "Effect on CGRP release in the third, post-stimulated fraction", "setting": "[1]; 100 and 500 nM", "value": "significantly inhibited"}, {"measurement": "pEC50", "setting": "[1]; sigmoidal concentration-response curve, non-linear least square fit, 10-2000 nM, read-out: EC50 for inhibition of electrically-evoked CGRP release", "value": 7.39}, {"measurement": "Effect on CGRP release in the third, post-stimulated fraction", "setting": "[1]; two highest concentrations (1000 and 2000 nM)", "value": "abolished"}, {"measurement": "Inhibition of EFS-evoked SP outflow", "setting": "[2]; 500 nM, 0.5 µM", "value": "64.3% and 64%"}, {"measurement": "Inhibition of EFS-evoked SP outflow", "setting": "[2]; 1000 nM (maximal inhibition), 1 µM", "value": "71.8% and 72%"}, {"measurement": "SP release, % increase above baseline", "setting": "[2]; 1 microM, after stimulation", "value": 16.32, "unit": "%"}, {"measurement": "SP Release into the incubation medium", "setting": "[2]; 1 microM, after stimulation (post-stimulated fraction)", "value": "1.663 fmol/mg wet tissue and 1.966 fmol/mg wet tissue and 1.892 fmol/mg wet tissue and 1.551 fmol/mg wet tissue and 1.397 fmol/mg wet tissue"}, {"measurement": "SP Release into the incubation medium, Mean", "setting": "[2]; 1 microM, after stimulation", "value": 1.694, "unit": "fmol/mg wet tissue"}, {"measurement": "SP release, % increase above baseline", "setting": "[2]; 1 microM, before stimulation", "value": 0.00, "unit": "%"}, {"measurement": "SP Release into the incubation medium", "setting": "[2]; 1 microM, before stimulation (pre-stimulated fraction)", "value": "1.398 fmol/mg wet tissue and 1.806 fmol/mg wet tissue and 1.860 fmol/mg wet tissue and 1.412 fmol/mg wet tissue and 0.805 fmol/mg wet tissue"}, {"measurement": "SP Release into the incubation medium, Mean", "setting": "[2]; 1 microM, before stimulation", "value": 1.456, "unit": "fmol/mg wet tissue"}, {"measurement": "SP release, % increase above baseline", "setting": "[2]; 1 microM, during stimulation", "value": 13.32, "unit": "%"}, {"measurement": "SP Release into the incubation medium", "setting": "[2]; [3]", "value": "1.558 fmol/mg wet tissue and 1.948 fmol/mg wet tissue and 1.992 fmol/mg wet tissue and 1.422 fmol/mg wet tissue and 1.331 fmol/mg wet tissue"}, {"measurement": "SP Release into the incubation medium, Mean", "setting": "[2]; 1 microM, during stimulation", "value": 1.650, "unit": "fmol/mg wet tissue"}, {"measurement": "Absolute release of SP", "setting": "[2]; 1 microM", "value": "0.425 fmol/mg wet tissue and 0.302 fmol/mg wet tissue and 0.164 fmol/mg wet tissue and 0.149 fmol/mg wet tissue and 1.118 fmol/mg wet tissue"}, {"measurement": "Absolute release of SP, Mean", "setting": "[2]; 1 microM", "value": 0.432, "unit": "fmol/mg wet tissue"}, {"measurement": "SP release, % increase above baseline", "setting": "[2]; 2 microM, after stimulation", "value": 6.72, "unit": "%"}, {"measurement": "SP Release into the incubation medium", "setting": "[2]; [4]", "value": "2.348 fmol/mg wet tissue and 1.531 fmol/mg wet tissue and 2.246 fmol/mg wet tissue and 1.543 fmol/mg wet tissue and 1.944 fmol/mg wet tissue"}, {"measurement": "SP Release into the incubation medium, Mean", "setting": "[2]; 2 microM, after stimulation", "value": 1.922, "unit": "fmol/mg wet tissue"}, {"measurement": "SP release, % increase above baseline", "setting": "[2]; 2 microM, before stimulation", "value": 0.00, "unit": "%"}, {"measurement": "SP Release into the incubation medium", "setting": "[2]; [5]", "value": "2.406 fmol/mg wet tissue and 1.582 fmol/mg wet tissue and 2.020 fmol/mg wet tissue and 1.132 fmol/mg wet tissue and 1.867 fmol/mg wet tissue"}, {"measurement": "SP Release into the incubation medium, Mean", "setting": "[2]; 2 microM, before stimulation", "value": 1.801, "unit": "fmol/mg wet tissue"}, {"measurement": "SP release, % increase above baseline", "setting": "[2]; 2 microM, during stimulation", "value": 56.23, "unit": "%"}, {"measurement": "SP Release into the incubation medium", "setting": "[2]; [6]", "value": "3.130 fmol/mg wet tissue and 2.398 fmol/mg wet tissue and 2.334 fmol/mg wet tissue and 2.078 fmol/mg wet tissue and 4.132 fmol/mg wet tissue"}, {"measurement": "SP Release into the incubation medium, Mean", "setting": "[2]; 2 microM, during stimulation", "value": 2.814, "unit": "fmol/mg wet tissue"}, {"measurement": "Absolute release of SP", "setting": "[2]; 2 microM", "value": "0.666 fmol/mg wet tissue and 0.765 fmol/mg wet tissue and 0.540 fmol/mg wet tissue and 1.357 fmol/mg wet tissue and 2.342 fmol/mg wet tissue"}, {"measurement": "Absolute release of SP, Mean", "setting": "[2]; 2 microM", "value": 1.134, "unit": "fmol/mg wet tissue"}, {"measurement": "Effect on stimulation-evoked SP release", "setting": "[2]; [7]", "value": "significantly inhibited"}, {"measurement": "pEC50", "setting": "[2]; sigmoidal concentration-response curve, non-linear least square fit, 10-2000 nM, read-out: EC50 for inhibition of electrically-evoked SP release", "value": 7.47}]}]}
